Assays:
[1] = tested on: Human peripheral blood mononuclear cells (PBMCs); experiment: Promotion of IFN-γ secretion in PBMCs treated with anti-CD3/anti-CD28 and PDL1/FC fusion protein (ELISA); type: cell-based; details: for IFN-γ / Increase rate of IFN-γ expression vs PDL1 treatment: hPD-L1 10.0 μg/mL, 72 h
Method: Human peripheral blood mononuclear cells (PBMCs) were isolated from 10-15 ml of whole blood of healthy volunteers using experimental human lymphocyte separation medium (TBD sciences). The cells were washed twice with normal saline and resuspended in buffer (RPMI 1640 complete medium containing 10% FBS, SIGMA) to count the cell density. The PBMCs were dispersed and placed in a 96-well plate, 1×10^5 cells and 50 μL of buffer per well. Anti-CD3 antibody (SIGMA) and anti-CD28 antibody (SIGMA) were mixed at a ratio of 1:1 to obtain an antibody mixture. The antibody mixture was added to the wells to ensure that the final concentration of antibody was 0.8 μg/mL. At the same time, PDL1/FC fusion protein (SINO BIOLOGICAL) was added to reach a final concentration of 10.0 μg/mL, and the compound to be tested was diluted with buffer and added to the wells to reach a final concentration of 0.1 μM or 1 μM. The mixed system was incubated at 37° C. and 5% CO2 for 72 h. The supernatant was collected, and the expression level of IFN-γ was measured by ELISA MAXTM Human IFN-γ Standard Kit (BioLegend), and the increase rate was calculated. Increase rate (%)=(expression amount of compound treatment−expression amount of PDL1 treatment)/expression amount of PDL1 treatment×100%

[2] = target: PD-1/PD-L1 interaction (Homo sapiens (Human), UniProt Q9NZQ7); experiment: PD-1/PD-L1 Binding Assay kit (Cisbio), HTRF; details: 8-10 concentrations, read-out: IC50 of inhibition of PD-1/PD-L1 interaction
[3] = target: human PD-L1 (Homo sapiens (Human), UniProt Q9NZQ7); experiment: Biofilm interferometry (BLI, OctetRED) binding to human PD-L1/AVI; details: 1:1 binding model; for koff: read-out: Kdis
Method: In the experiment, the instrument OctectRED of Fortebio Company based on biofilm interferometry (BLI) technology was used to capture human PD-L1/AVI with SA chips. The concentration of antigen PD-L1/AVI was diluted to 10 μg/mL with running buffer (PBS+0.02% Tween-20+2% DMSO), and the loading time was 300 s; similarly, the analyte was also diluted to the corresponding concentrations (20 nM, 10 nM, 5 nM, 2.5 nM, 1.25 nM, 0.625 nM, 0.3125 nM) with running buffer in gradient manner, and a buffer blank control group was set at the same time. The binding time of human PD-L1/AVI to the analyte was 180 s, and the dissociation time was 300 s; the chip was regenerated with 10 mM glycine HCl, pH 1.7 solution and repeated 5-second pulse for 3 times. The data were fitted to a 1:1 binding model to determine the equilibrium dissociation constant KD.

[4] = tested on: Raji cells; experiment: Cytotoxicity, Cell Titer-Glo, Raji cells; type: cell-based; details: Homo sapiens, 24 hours incubation, read-out: Raji cells IC50 (cell death)
Method: (§1) The raji (ATCC), raw (ATCC) and PBMCs cells were suspended in buffer (RPMI 1640 complete medium containing 10% FBS, SIGMA), respectively, and the cell density was counted. The cells were transferred to wells of a 96-well plate, ensuring that the cell density of each well was 1×10^4 cells/well, and incubated for 24 hours at 37° C., 5% CO2 with compounds at different concentrations (100 μM, 50 μM, 25 μM, 12.5 μM, 6.25 μM and 3.125 μM) and buffer control solution (0.2% DMSO). To each well, 100 μL of Cell Titer-Glo Luminescent Solution (Promega) was added and shaken for 10 minutes at room temperature, and then GloMax® Navigator System was used to measure the system […], and the cell death rate was calculated. Cell death rate (%)=(1−RLUcompound/RLUcontrol)×100%, and IC50 was determined from the inhibition curve.

[5] = tested on: Raw cells; experiment: Cytotoxicity, Cell Titer-Glo, Raw cells; type: cell-based; details: 24 hours incubation; read-out: Raw cells IC50 (cell death)
Method: as §1

[6] = tested on: PBMCs cells; experiment: Cytotoxicity, Cell Titer-Glo, PBMCs cells; type: cell-based; details: Homo sapiens, PBMC; 24 hours incubation; read-out: PBMCs cells IC50 (cell death)
Method: as §1

human PD-L1, sequence (Q9NZQ7 19-290): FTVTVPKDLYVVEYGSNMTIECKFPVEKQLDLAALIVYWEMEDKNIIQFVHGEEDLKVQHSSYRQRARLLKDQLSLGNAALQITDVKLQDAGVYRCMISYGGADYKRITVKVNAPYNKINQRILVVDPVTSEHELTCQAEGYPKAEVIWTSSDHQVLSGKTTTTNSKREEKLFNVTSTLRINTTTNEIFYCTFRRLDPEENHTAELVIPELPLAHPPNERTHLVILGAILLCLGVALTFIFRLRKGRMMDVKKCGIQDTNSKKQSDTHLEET
PD-1/PD-L1 interaction, sequence (Q9NZQ7 19-238): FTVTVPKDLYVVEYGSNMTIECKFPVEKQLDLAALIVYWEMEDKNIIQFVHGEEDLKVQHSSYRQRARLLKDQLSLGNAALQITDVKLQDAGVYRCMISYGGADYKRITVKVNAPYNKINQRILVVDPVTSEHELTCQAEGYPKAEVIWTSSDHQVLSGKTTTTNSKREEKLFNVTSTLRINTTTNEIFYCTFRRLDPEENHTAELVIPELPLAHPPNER

| SMILES | IC50 [2] [µM] | IC50 [4] [µM] | IC50 [5] [µM] | IC50 [6] [µM] | further results |
| --- | --- | --- | --- | --- | --- |
| COc1nc(OCc2cccc(-c3ccccc3)c2C)ccc1CNCCNC(C)=O [BMS202] |  |  |  |  | IFN-γ ([1]; compound 0.1 μM): 35100 pg/mL; Increase rate of IFN-γ expression vs PDL1 treatment ([1]; compound 0.1 μM): 64.8%; IFN-γ ([1]; compound 1.0 μM): 39100 pg/mL; Increase rate of IFN-γ expression vs PDL1 treatment ([1]; compound 1.0 μM): 83.6% |
| Cc1c(CNc2ccc(CN[C@H](CO)C(=O)O)c(OCc3cccc(C#N)c3)c2)cccc1-c1ccccc1 [Compound 4] | 1.16 | > 100 | > 100 | > 100 | Kd [3]: 0.00181 µM; kon [3]: 651000 M⁻¹ s⁻¹; koff [3]: 0.00118 s⁻¹ |
| Cc1cc(NCc2cccc(-c3ccccc3)c2C)cc(OCc2cccc(C#N)c2)c1CN[C@H](CO)C(=O)O [Compound 6] | 0.436 |  |  |  |  |
| COc1cc(NCc2cccc(-c3ccccc3)c2C)cc(OCc2cccc(C#N)c2)c1CN[C@H](CO)C(=O)O [Compound 8] | 0.672 | > 100 | > 100 | > 100 |  |
| COc1nc(NCc2cccc(-c3ccccc3)c2C)ccc1CNCCNC(C)=O [Compound 9] | 4.24 |  |  |  |  |
| COc1cc(NCc2cccc(-c3ccccc3)c2C)c(C)cc1CNC(CO)C(=O)O (centres unmarked) [Compound 14] |  | > 100 | > 100 | > 100 |  |
| COc1cc(NCc2cccc(-c3ccccc3)c2C)ncc1CN[C@H](CO)C(=O)O [Compound 15] | 2.63 |  |  |  |  |
| Cc1cc(CN[C@H](CO)C(=O)O)c(OCc2cccnc2)cc1NCc1cccc(-c2ccccc2)c1C [Compound 17] | 0.092 | 78.9 | 61.6 | > 100 |  |
| CCOc1cc(NCc2cccc(-c3ccccc3)c2C)c(C)cc1CN[C@H](CO)C(=O)O [Compound 20] | 0.347 |  |  |  |  |
| Cc1cc(CN2C[C@H](O)C[C@H]2C(=O)O)c(OCc2cncc(C#N)c2)cc1NCc1cccc(-c2ccccc2)c1C [Compound 21] | 0.024 | > 100 | 88.2 | 75.5 |  |
| Cc1cc(CNC[C@@H](O)CC(=O)O)c(OCc2cncc(C#N)c2)cc1NCc1cccc(-c2ccccc2)c1C [Compound 22] | 0.017 |  |  |  |  |
| Cc1cc(CN2C[C@@H](O)CC2=O)c(OCc2cncc(C#N)c2)cc1NCc1cccc(-c2ccccc2)c1C [Compound 23] | 0.036 |  |  |  |  |
| Cc1cc(CN[C@H](CCO)C(=O)O)c(OCc2cncc(C#N)c2)cc1NCc1cccc(-c2ccccc2)c1C [Compound 24] | 1.33 |  |  |  |  |
| Cc1c(CN(C)c2ccc(CN[C@H](CO)C(=O)O)c(OCc3cccc(C#N)c3)c2)cccc1-c1ccccc1 [Compound 26] | > 100 |  |  |  |  |
| Cc1c(NCc2ccc(CN[C@H](CO)C(=O)O)c(OCc3cncc(C#N)c3)c2)cccc1-c1ccccc1 [Compound 28] | 0.191 |  |  |  |  |
| Cc1cc(CN[C@H](CO)C(=O)O)c(OCc2cncc(C#N)c2)cc1NCc1cccc(-c2ccccc2)c1C(F)(F)F [Compound 29] | 0.61 |  |  |  |  |
| N#Cc1cncc(COc2cc(NCc3cccc(-c4ccccc4)c3Br)ccc2CNC(CO)C(=O)O)c1 (centres unmarked) [Compound 31] |  | > 100 | > 100 | > 100 |  |
| Cc1c(COc2ccc(CNC(CO)C(=O)O)c(OCc3cncc(C#N)c3)c2)cccc1-c1ccccc1 (centres unmarked) [Compound 37, reference compound] |  | 22.6 | 31.2 | 16.8 | Kd [3]: 0.0675 µM; kon [3]: 12600 M⁻¹ s⁻¹; koff [3]: 0.000851 s⁻¹; IFN-γ ([1]; compound 0.1 μM): 23200 pg/mL; Increase rate of IFN-γ expression vs PDL1 treatment ([1]; compound 0.1 μM): 8.9%; IFN-γ ([1]; compound 1.0 μM): 25100 pg/mL; Increase rate of IFN-γ expression vs PDL1 treatment ([1]; compound 1.0 μM): 17.8% |
| Cc1c(C#N)cncc1COc1cc(OCc2cccc(-c3ccccc3)c2C)ccc1CNC(CO)C(=O)O (centres unmarked) [Compound 38, reference compound] |  | 32.1 | 28.8 | 26.6 | IFN-γ ([1]; compound 0.1 μM): 23300 pg/mL; Increase rate of IFN-γ expression vs PDL1 treatment ([1]; compound 0.1 μM): 9.4%; IFN-γ ([1]; compound 1.0 μM): 22600 pg/mL; Increase rate of IFN-γ expression vs PDL1 treatment ([1]; compound 1.0 μM): 6.1% |

Second part, led by results:

| IC50 [2] [µM] | SMILES | IC50 [4] [µM] | IC50 [5] [µM] | IC50 [6] [µM] | further results |
| --- | --- | --- | --- | --- | --- |
| 4.94 | CC(=O)NCCNCc1ccc(NCc2cccc(-c3ccccc3)c2C)cc1OCc1cccc(C#N)c1 [Compound 1] |  |  |  |  |
| 3.67 | Cc1c(CNc2ccc(CNCCO)c(OCc3cccc(C#N)c3)c2)cccc1-c1ccccc1 [Compound 2] |  |  |  |  |
| 2.6 | Cc1c(CNc2ccc(CNC(CO)CO)c(OCc3cccc(C#N)c3)c2)cccc1-c1ccccc1 [Compound 3] |  |  |  |  |
| 0.363 | Cc1cc(NCc2cccc(-c3ccccc3)c2C)cc(OCc2cncc(C#N)c2)c1CN[C@H](CO)C(=O)O [Compound 7] |  |  |  |  |
| 0.038 | Cc1c(CNc2ccc(CN[C@H](CO)C(=O)O)c(OCc3cncc(C#N)c3)c2)cccc1-c1ccccc1 [Compound 10] | > 100 | > 100 | > 100 | Kd [3]: 0.000296 µM; kon [3]: 849000 M⁻¹ s⁻¹; koff [3]: 0.000251 s⁻¹; IFN-γ ([1]; compound 0.1 μM): 37700 pg/mL; Increase rate of IFN-γ expression vs PDL1 treatment ([1]; compound 0.1 μM): 77.0%; IFN-γ ([1]; compound 1.0 μM): 41500 pg/mL; Increase rate of IFN-γ expression vs PDL1 treatment ([1]; compound 1.0 μM): 94.8%; effect on promoting IFN-γ secretion at the cellular level ([1]; in words, better than that of BMS202): significant effect on promoting IFN-γ secretion |
| 0.107 | COc1cc(NCc2cccc(-c3ccccc3)c2C)c(Cl)cc1CN[C@H](CO)C(=O)O [Compound 11] |  |  |  | Kd [3]: 0.000515 µM; kon [3]: 1.29e+06 M⁻¹ s⁻¹; koff [3]: 0.000664 s⁻¹ |
| 4.54 | COc1nc(NCc2cccc(-c3ccccc3)c2C)ccc1CN[C@H](CO)C(=O)O [Compound 12] |  |  |  |  |
| 0.023 | Cc1cc(CN[C@@H](CO)CC(=O)O)c(OCc2cncc(C#N)c2)cc1NCc1cccc(-c2ccccc2)c1C [Compound 18] |  |  |  |  |
| 0.165 | Cc1cc(CN[C@H](CO)C(=O)O)c(OCc2cccc(C#N)c2)cc1NCc1cccc(-c2ccccc2)c1C [Compound 19] |  |  |  |  |
| 0.047 | Cc1cc(CN[C@H](CC(N)=O)C(=O)O)c(OCc2cncc(C#N)c2)cc1NCc1cccc(-c2ccccc2)c1C [Compound 25] |  |  |  |  |
| 22.6 | Cc1c(CN(C)c2ccc(CNCCO)c(OCc3cccc(C#N)c3)c2)cccc1-c1ccccc1 [Compound 27] | 84.1 | > 100 | > 100 |  |
| 2.93 | N#Cc1cncc(COc2cc(NCc3cccc(-c4ccccc4)c3C(F)(F)F)ccc2CN[C@H](CO)C(=O)O)c1 [Compound 30] |  |  |  |  |
| 0.637 | N#Cc1cccc(COc2cc(NCc3cccc(-c4ccccc4)c3Br)ccc2CNC(CO)C(=O)O)c1 (centres unmarked) [Compound 33] |  |  |  |  |
| 0.435 | Cc1c(CNc2ccc(CN[C@H](CO)C(=O)O)c(OCc3cccc(C#N)c3)c2)cccc1-c1ccc2c(c1)OCCO2 [Compound 34] | 90.3 | > 100 | > 100 |  |
| 0.323 | Cc1c(COc2ccc(CN[C@H](CO)C(=O)O)c(OCc3cncc(C#N)c3)c2)cccc1-c1ccccc1 [Compound 37, reference compound] |  |  |  |  |
| 1.04 | Cc1c(C#N)cncc1COc1cc(OCc2cccc(-c3ccccc3)c2C)ccc1CN[C@H](CO)C(=O)O [Compound 38, reference compound] |  |  |  |  |
